Laboratory results reported in patent US20230339896A1, “HPK1 INHIBITORS AND USES THEREOF” (QILU REGOR THERAPEUTICS INC., priority 2020, published 2023).

How the values were obtained:
[1] = test system: Human Pan T cells; experiment: IL2 & IFN-γ released by human pan T cell (ELISA); format: cell-based; conditions: for EC50 / Human Pan T cells EC2x (nM, IL-2): IL-2, anti-CD3/CD28 stimulation, 48 hours; for Human Pan T cells EC2x (nM, IL-2): concentration giving 200% response (2 folds) over DMSO control; for Max fold change: IL-2 response over DMSO control, human pan T cells
From the text: This example is an assay method that can be used to determine compound effects on IL2 & IFN-γ release using pan T cells and ELISA assay format.
Procedures for Pan T isolation and Reagent preparation (Day 0): • 1. Cell Growth Medium: • RPMI1640: ATCC, Cat# 30-2001 • 10% FBS: Gibco, Cat# 10099141 • 1% Pen-Strep: Gibco, Cat # 15140122 • 1% Non-essential amino: Gibco, Cat #11140050 • Beta- Mercaptoethanol: Gibco, Cat#21985023 • 2. Pan T isolation buffer preparation: • Prepare a solution containing phosphate-buffered saline (PBS), pH 7.2, 0.5% bovine serum albumin (BSA), and 2 mM EDTA by diluting MACS® BSA Stock Solution (# 130-091-376) 20 times with autoMACS® Rinsing Solution. Keep buffer at 4° C. Degas buffer before use, as air bubbles could block the column.
• 3. Thawing of frozen PBMC • 1) Pre-heat medium at 37° C. water bath. • 2) Rapidly thaw cells in 37° C. water bath. • 3) Add the pre-warmed medium into 15 mL tube. Transfer cells to the tube. • 4) 300 × g centrifuge for 8 min. (centrifuge increase 0, decrease 0). • 5) Wash the PBMC using Rinsing buffer. • 6) Centrifuge PBMC at 300 × g for 8 min, wash it twice (centrifuge increase 9, decrease 1). • 7) Resuspend the cells with Pan T cells isolation buffer and count cells number. • 4. Pan T cells isolation: • Cell staining with microbead cocktail • 1) Prepare cells and determine cell number. Filter cells by 70 µm cell strainer. • 2) Resuspend cell pellet in 40 µL of buffer per 10^7 total cells. • 3) Add 10 µL of Pan T Cell Biotin-Antibody Cocktail per 10^7 total cells. • 4) Mix well and incubate for 10 minutes in the refrigerator (ice). • 5) Add 30 µL of buffer per 10^7 total cells. • 6) Add 20 µL of Pan T Cell MicroBead Cocktail per 10^7 total cells. • 7) Mix well and incubate for 15 minutes in the refrigerator (ice). • 8) Proceed to subsequent magnetic cell separation.
Subsequent manual cell separation: • 1) Place LS Column in the magnetic field of a suitable MACS Separator. For details refer to the respective MACS Column data sheet. • 2) Prepare column by rinsing with 3 mL of buffer. • 3) Apply cell suspension onto the column. Collect flow-through, which represents the enriched T cells. • 4) Wash column with 5 mL of buffer. Collect unlabeled cells that pass through, representing the enriched T cells.
Reminder: Always wait until the column reservoir is empty before proceeding to the next step. • 5. Pan T cell FACS: • 1) Take out 50 µL of PBMC and Pan T cells to FACS tubes respectively. • 2) Incubate cells with anti-human CD3/CD4/CD8 antibodies (1 µL/1 µL/1 µL /tube) for 20 min at 4° C. For unstained control, incubate cells with FACS staining buffer. • 3) Wash 2 times with cold staining buffer (PBS with 0.2%BSA and 1 mM EDTA). • 4) Run FACS. Gate CD3^+, CD3^+CD4^+, and CD3^+CD8^+ population for % analysis. • 5) If the purity of Pan T cells is higher than 90%, dilute cell suspension to 1 million cells/mL with the appropriate volume of Cell Culture Media. • 6) Dispense the cell suspension into a sterile, disposable reservoir for future use.
Procedures for preparation of compounds and anti-human CD3/CD28 (Day 0): • 1. Compound preparation • Compound serial dilution (source plate 1000×) • Compounds are solubilized in 100% DMSO to a concentration of 10 mM. Then they were 3-fold serially diluted to 8-point doses. • 4× Compound dose preparation (inter plate: Corning-3599): • Prepare 4× compound solution in culture medium. Pipet up and down. For the ZPE control, prepare 0.4% DMSO (4×) in culture medium. For the HPE control, prepare 0.4 µM of RGT003-026 (4×) in culture medium. • 2. Anti-human CD3 (stock conc. 6.76 mg/ml): stored at 4° C. • 1) Dilute anti-human CD3 with PBS to final conc. of 0.5 µg/mL. • 2) Add 50 µL /well of CD3 to each well, except for the positive and negative control wells. […] Rinse each well twice with 200 µL of sterile PBS each time. • 3. […]

[2] = target: HPK1 (Homo sapiens (Human), UniProt Q92918); experiment: HPK1 biochemical assay (ADP-GLO Kinase Assay); conditions: ADP-GLO, 10 µM ATP, MBP substrate; read-out: HPK1 IC50
From the text: This example used the ADP-GLO™ Kinase Assay to measure the effect of potential HPK1 inhibitor compounds on HPK1 kinase activity.
The ADP-GLO™ Kinase Assay (Promega Corp., Madison, WI) measures ADP formed from a kinase reaction. According to the manufacture, the ADP formed in a kinase assay is first converted into ATP, which is then used to generate light in a luciferase reaction. The luminescence generated correlates with kinase activity. An exemplary experimental setting is described below, though minor adjustments can be made in individual assays.
Serial 3-fold dilution of compoounds from 10 µM (top concentration) to 0.508 nM (lowest concentration). Positive control is 10 µM Reference + enzyme + substrate. Negative control is 1% DMSO + enzyme + substrate.
40 mM Tris pH7.5; 20 mM MgC12, 0.1 mg/ml BSA, 50 µM DTT Buffer stock
• 1) The compounds were diluted to 1 mM, by mixing 10 µL of 10 mM respective compound stocks with 90 µL of DMSO. • 2) The compounds were then diluted 3-fold for 10 doses (5 µL to 10 µL dilution) by BRAVO. The top compound conc. was 1 mM (100×), DMSO Conc. was 100%. • 3) Transfer 100 nL of each diluted compound sample to 384-well plate (Corning-4512) by ECHO. • 4) Centrifuge the plate at 1,500 rpm for 1 minute.
20 µM ATP, 0.2 µg/µL MBP in Kinase Buffer (final concentration: 10 µM ATP, 0.1 µg/µL MBP)
• 5. Preparation of 2× HPK1 working solution with assay buffer. HPK1 final concentration was 0.6 ng/µL. […] Add 5 µL/well of 2× HPK1 working solution, Centrifuge at 1,500 rpm for 1 minute. • 7. Add 5 µL/well of 2× ATP-Substrate, Centrifuge at 1,500 rpm for 1 minute. • 8. Incubate at 25° C. for 1 hour (or 6 hours for compounds with high potency). • 9. Add 5 µL/well ADP-GLO™ Reagent to stop the kinase reaction and deplete the unconsumed ATP. Centrifuge at 1,500 rpm for 1 minute. Incubate at 25° C. for 40 min. • 10. Add 10 µL of Kinase Detection Reagent to convert ADP to ATP. Centrifuge at 1,500 rpm for 1 minute. Incubate at 25° C. for 40 min. • 11. Record luminescence signal on an Envision plate reader (384-CTG).
The percent (%) inhibition at each concentration of compound is calculated based on and relative to the signal in the High and Low control wells contained within each assay plate. […] The concentrations and % inhibition values for tested compounds were plotted and the concentration of compound required for 50% inhibition (IC50) was determined with a Three-parameter logistic dose response equation. The endpoint value (IC50) for the reference peptide/compound was evaluated in each experiment as a quality control measure. If the endpoint value was within 3-fold of the expected value, then the experiment was deemed acceptable.

HPK1, sequence (Q92918 whole entry): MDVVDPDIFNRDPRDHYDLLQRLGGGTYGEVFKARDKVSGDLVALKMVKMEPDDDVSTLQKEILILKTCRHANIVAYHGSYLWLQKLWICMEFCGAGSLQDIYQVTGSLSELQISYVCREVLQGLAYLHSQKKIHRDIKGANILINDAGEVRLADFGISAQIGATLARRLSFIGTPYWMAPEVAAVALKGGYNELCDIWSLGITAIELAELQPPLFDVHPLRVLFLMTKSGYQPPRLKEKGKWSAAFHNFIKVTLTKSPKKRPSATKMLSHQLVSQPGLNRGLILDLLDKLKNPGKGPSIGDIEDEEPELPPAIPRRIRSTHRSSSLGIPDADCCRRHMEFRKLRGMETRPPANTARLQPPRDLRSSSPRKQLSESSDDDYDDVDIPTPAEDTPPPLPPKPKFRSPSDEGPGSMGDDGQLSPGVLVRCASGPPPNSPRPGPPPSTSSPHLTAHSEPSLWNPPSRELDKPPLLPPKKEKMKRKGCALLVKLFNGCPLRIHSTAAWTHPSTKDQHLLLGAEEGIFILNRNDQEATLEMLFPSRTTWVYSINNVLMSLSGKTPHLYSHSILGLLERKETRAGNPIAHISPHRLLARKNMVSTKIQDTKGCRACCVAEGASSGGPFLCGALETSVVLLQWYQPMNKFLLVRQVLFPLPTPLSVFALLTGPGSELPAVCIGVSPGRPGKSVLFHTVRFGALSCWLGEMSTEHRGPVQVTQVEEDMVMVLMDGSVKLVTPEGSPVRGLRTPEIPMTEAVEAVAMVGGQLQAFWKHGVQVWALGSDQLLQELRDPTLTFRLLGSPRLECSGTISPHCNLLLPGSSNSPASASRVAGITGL

EC50 ([1]; Homo sapiens, T-cell) [nM] | IC50 [2] [nM] | EC50 [1] [nM] | SMILES | Human Pan T cells EC2x (nM, IL-2) [1] | Max fold change [1]
68 | 1.1 |  | COc1cc2c(cc1Nc1ncc(Cl)c(N3CC(C)(CC(=O)O)c4cc(F)ccc43)n1)CN(C)CC2 (centres unmarked) [Compound 9, reference compound] | 62 (N = 2) nM | 3.24 (N = 2)
 | 24 | 911 | COc1cc2c(cc1Nc1ncc(Cl)c(N3C[C@@](C)(CC(=O)O)c4ccccc43)n1)CN(C)CC2 (single isomer, unassigned) [Example 3, (S)-2-(1-(5-chloro-2-((6-methoxy-2-methyl-1,2,3,4-tetrahydroisoquinolin-7-yl)amino)pyrimidin-4-yl)-3-methylindolin-3-yl)acetic acid or (R)-2-(1-(5-chloro-2-((6-methoxy-2-methyl-1,2,3,4-tetrahydroisoquinolin-7-yl)amino)pyrimidin-4-yl)-3-methylindolin-3-yl)acetic acid] | > 5760 (N = 2) nM | 1.96 (N = 2)
